Data reported in patent EP2689847A1, “Methods for catalytic alkylation of nucleic acids” (Universität Basel, priority 2012, dated 2014).

test: water solubility of α-diazocarbonyl substrates under the conditions of the oligonucleotide modification reaction; type: physicochemical; conditions: aqueous reaction mixture, 100 mM MES buffer, pH 6.0, 50 mM α-diazocarbonyl compound
Excerpt: A number of a-diazocarbonyl substrates were screened as potential candidates for the target reaction of oligonucleotide modification (Table 4). […] Increasing the bulkiness of the ester moiety appeared to have a negative effect on the yields of modified oligonucleotide as for entry 2 the efficacy of modification was reduced twice in comparison to the methyl ester counterpart (entry 1) and with the compound from entry 7 only trace amounts of modified oligonucleotide were isolated.
General procedure for Rh2(OAc)4-catalyzed oligonucleotide modification using a-diazocarbonyl compounds. Typically […] reaction mixtures containing 5 mM oligonucleotide, […] Rh2(OAc)4 and 50 mM a-diazocarbonyl compound in 100 mM MES buffer, pH 6.0 were kept at 20 °C for 24-72 h. Analysis of the reaction products was carried out by micropreparative HPLC-separation of 5-ml aliquots of the reaction mixtures using method A. The collected peak fractions were further assessed by ESI-MS or MALDI TOF.

Water solubility under the conditions of the analysis, sufficiently water-soluble:
CCOC(=O)C(=[N+]=[N-])c1ccc(CN(C)C)cc1 [entry 2]
C#CCN1CCN(CCOCCOCCOCCN2CCN(Cc3ccc(C(=[N+]=[N-])C(=O)OC)cc3)CC2)CC1 [Dz-2, Methyl2-diazo-2-(4-((4-(2-(2-(2-(2-(4-(prop-2-yn-1-yl)piperazin-1-yl)ethoxy)ethoxy)ethoxy)ethyl)piperazin-1-yl)methyl)phenyl)acetate]
COC(=O)C(=[N+]=[N-])c1ccc(CN(C)C)cc1 [Dz-1, Methyl 2-diazo-2-(4-((dimethylamino)methyl)phenyl)acetate]
